A short description of the test: Binding affinity to human recombinant Nav1.7 by radioligand binding assay.

With `CS(=O)(=O)NC(=O)c1cc(C2CC2)c(OCC2CCN(Cc3cc(C(F)(F)F)ccc3Cl)CC2)cc1F` [US9546164, 580], the Kd came to 3.5 nM.

With `Cc1nn([C@@H]2CCN([C@H](C)c3cc(Cl)cc(Cl)c3)C2)c2cc(F)c(C(=O)NS(=O)(=O)C3CC3)cc12`, the Kd is 22 nM.

(Values after BindingDB's records for doi:10.1021/acs.jmedchem.8b01906 (Siteone Therapeutics, 2019).)
